Columns and labels:
[1] = tested on: lambsquarter (Chenopodium album); experiment: Preemergence herbicidal activity; format: in vivo; details: Chenopodium album, pre-emergence, 480 h; pre-emergent, 140 g ai/ha, after 20-22 days; read-out: % Control CHEAL
Summary of the method: (§1)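 Seeds sown in 70:30 loam (pH about 8.1, about 1.5% organic matter) and sand mix, then sprayed preemergence at 187 L/ha with a track sprayer; controls received solvent blank. Pots kept in greenhouse, about 15 h photoperiod, about 23-29° C. day and 22-28° C. night, top-irrigated.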

[2] = tested on: velvetleaf (Abutilon theophrasti); experiment: Preemergence herbicidal activity; format: in vivo; details: Abutilon theophrasti, pre-emergence, 480 h; pre-emergent, 140 g ai/ha, after 20-22 days; read-out: % Control ABUTH
Summary of the method: as §1

[3] = tested on: redroot pigweed (Amaranthus retroflexus); experiment: Preemergence herbicidal activity; format: in vivo; details: Amaranthus retroflexus, pre-emergence, 480 h; pre-emergent, 140 g ai/ha, after 20-22 days; read-out: % Control AMARE
Summary of the method: as §1

[4] = tested on: lambsquarter (Chenopodium album); experiment: Postemergence herbicidal activity; format: in vivo; details: Chenopodium album, post-emergence, 336 h, post-emergent, 140 g ai/ha, after 14 days; read-out: % Control CHEAL
Summary of the method: (§2)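 Compounds were applied postemergence by track sprayer delivering 187 L/ha, using a mixed organic/aqueous carrier containing crop oil concentrate and surfactant; solvent-blank sprays served as controls. Test plants were at the first to second true leaf stage after 7-21 days' greenhouse growth, were sub-irrigated after treatment, and were evaluated by probit analysis.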

[5] = tested on: velvetleaf (Abutilon theophrasti); experiment: Postemergence herbicidal activity; format: in vivo; details: Abutilon theophrasti, post-emergence, 336 h, post-emergent, 140 g ai/ha, after 14 days; read-out: % Control ABUTH
Summary of the method: as §2

[6] = tested on: redroot pigweed (Amaranthus retroflexus); experiment: Postemergence herbicidal activity; format: in vivo; details: Amaranthus retroflexus, post-emergence, 336 h, post-emergent, 140 g ai/ha, after 14 days; read-out: % Control AMARE
Summary of the method: as §2

Veronica persica = experiment: Postemergence herbicidal activity in cereal crops; format: in vivo; details: Veronica persica, post-emergence, 480 h, post-emergent, after 20-22 days, read-out: % Control VERPE; for pest or weed control at 70 g/ha: 70 g ai/ha
Protocol: (§3) When required to ensure good germination and healthy plants, a fungicide treatment and/or other chemical or physical treatment was applied. The plants were grown for 7-36 days in a greenhouse with an approximate 14 hour photoperiod which was maintained at about 18° C. during the day and 17° C. during the night. Nutrients and water were added on a regular basis and supplemental lighting was provided with overhead metal halide 1000-Watt lamps as necessary. The plants were employed for testing when they reached the second or third true leaf stage. […] The concentrated stock solutions obtained were diluted with 16 mL of an aqueous mixture containing acetone, water, isopropyl alcohol, DMSO, Agri-dex crop oil concentrate, and Triton® X-77 surfactant in a 64.7:26.0:6.7:2.0:0.7:0.01 v/v ratio to obtain spray solutions containing the highest application rates. […] Compound requirements are based upon a 12 mL application volume at a rate of 187 L/ha. Formulated compounds were applied to the plant material with an overhead Mandel track sprayer equipped with a […] nozzles calibrated to deliver 187 L/ha over an application area of 0.503 square meters at a spray height of 18 inches (43 cm) above average plant canopy height. Control plants were sprayed in the same manner with the blank. The treated plants and control plants were placed in a greenhouse as described above and watered by sub-irrigation to prevent wash-off of the test compounds.

barley (Hordeum vulare) = experiment: Postemergence herbicidal activity in cereal crops; format: in vivo; details: Hordeum, post-emergence, 480 h, crop, post-emergent, after 20-22 days, read-out: % Control HORVS; for pest or weed control at 70 g/ha: 70 g ai/ha
Protocol: as §3

Lamium purpureum = experiment: Postemergence herbicidal activity in cereal crops; format: in vivo; details: Lamium purpureum, post-emergence, 480 h, post-emergent, after 20-22 days, read-out: % Control LAMPU; for pest or weed control at 70 g/ha: 70 g ai/ha
Protocol: as §3

Papaver rhoeas = experiment: Postemergence herbicidal activity in cereal crops; format: in vivo; details: Papaver rhoeas, post-emergence, 480 h, post-emergent, after 20-22 days, read-out: % Control PAPRH; for pest or weed control at 70 g/ha: 70 g ai/ha
Protocol: as §3

Galium aparine = experiment: Postemergence herbicidal activity in cereal crops; format: in vivo; details: Galium aparine, post-emergence, 480 h, post-emergent, after 20-22 days, read-out: % Control GALAP; for pest or weed control at 70 g/ha: 70 g ai/ha
Protocol: as §3

[7] = tested on: wheat (Triticum aestivum); experiment: Postemergence herbicidal activity in cereal crops; format: in vivo; details: Triticum aestivum, post-emergence, 480 h, crop, post-emergent, after 20-22 days, read-out: % Control TRZAS; for plant injury at 70 g/ha: 70 g ai/ha
Protocol: as §3

Scirpus juncoides = experiment: Herbicidal activity in transplanted paddy rice; format: in vivo; details: Schoenoplectiella juncoides, 504 h; paddy water application, 70 g ai/ha, after 3 weeks; read-out: % Control SCPJU
Protocol: (§4) Weed seeds or nutlets of the desired test plant species were planted in puddled soil (mud) prepared by mixing a non-sterilized mineral soil (28 percent silt, 18 percent clay, and 54 percent sand, with a pH of about 7.3 to 7.8 and an organic matter content of about 1.0 percent) and water at a ratio of 100 kg of soil to 19 L of water. The prepared mud was dispensed in 250 mL aliquots into 480 mL non-perforated plastic pots with a surface area of 91.6 square centimeters leaving a headspace of 3 centimeters in each pot. […] Seedlings at the second or third leaf stage of growth were transplanted into 650 mL of mud contained in 960 mL non-perforated plastic pots with a surface area of 91.6 square centimeters 4 days prior to herbicide application. The paddy was created by filling the 3 centimeter headspace of the pots with water. When required to ensure good germination and healthy plants, a fungicide treatment and/or other chemical or physical treatment was applied. The plants were grown for 4-14 days in a greenhouse with an approximate 14 hour photoperiod which was maintained at about 29° C. during the day and 26° C. during the night. Nutrients were added as Osmocote (17:6:10, N:P:K+minor nutrients) at 2 g per pot. Water was added on a regular basis to maintain the paddy flood, and supplemental lighting was provided with overhead metal halide 1000-Watt lamps as necessary. The plants were employed for testing when they reached the second or third true leaf stage. A weighed amount, determined by the highest rate to be tested, of each test compound was placed in a 120 mL glass vial and was dissolved in 20 mL of acetone to obtain concentrated stock solutions. […] Application rates of ½×, ¼×, ⅛× and 1/16× of the high rate were obtained by injecting an appropriate amount of the stock solution into the aqueous layer of the paddy. Control plants were treated in the same manner with the solvent blank. The treated plants and control plants were placed in a greenhouse as described above and water was added as needed to maintain a paddy flood.

Monochoria vaginalis = experiment: Herbicidal activity in transplanted paddy rice; format: in vivo; details: Pontederia vaginalis, 504 h; paddy water application, 70 g ai/ha, after 3 weeks; read-out: % Control MOOVA
Protocol: as §4

Echinochloa crus-galli = experiment: Herbicidal activity in transplanted paddy rice; format: in vivo; details: Echinochloa crus-galli, 504 h; paddy water application, 70 g ai/ha, after 3 weeks; read-out: % Control ECHCG
Protocol: as §4

[8] = tested on: rice (Orysa sativa var. Japonica); experiment: Herbicidal activity in transplanted paddy rice; format: in vivo; details: Oryza sativa, 504 h; transplant rice (crop), paddy water application, 70 g ai/ha, after 3 weeks
Protocol: as §4

Cyperus difformis = experiment: Herbicidal activity in transplanted paddy rice; format: in vivo; details: Cyperus difformis, 504 h; paddy water application, 70 g ai/ha, after 3 weeks; read-out: % Control CYPDI
Protocol: as §4

| SMILES | melting point | pest or weed control at 140 g/ha [1] | pest or weed control at 140 g/ha [2] | pest or weed control at 140 g/ha [3] | pest or weed control at 140 g/ha [4] | pest or weed control at 140 g/ha [5] | pest or weed control at 140 g/ha [6] | pest or weed control at 70 g/ha (Veronica persica) | pest or weed control at 70 g/ha (barley (Hordeum vulare)) | pest or weed control at 70 g/ha (Lamium purpureum) | pest or weed control at 70 g/ha (Papaver rhoeas) | pest or weed control at 70 g/ha (Galium aparine) | plant injury at 70 g/ha [7] | pest or weed control at 70 g/ha (Scirpus juncoides) | pest or weed control at 70 g/ha (Monochoria vaginalis) | pest or weed control at 70 g/ha (Echinochloa crus-galli) | pest or weed control at 70 g/ha [8] | pest or weed control at 70 g/ha (Cyperus difformis) | also measured |
| --- | --- | --- | --- | --- | --- | --- | --- | --- | --- | --- | --- | --- | --- | --- | --- | --- | --- | --- | --- |
| CCCCOC(=O)c1nc(-c2c(F)cc(Cl)c(OC)c2F)cc(N)c1Cl [Compound 88, 4-Amino-3-chloro-6-(4-chloro-2,6-difluoro-3-methoxyphenyl)pyridine-2-carboxylic acid, butyl ester] |  |  |  |  |  |  |  |  |  |  |  |  |  | 100% | 100% | 100% | 10% | 100% |  |
| CCCCOC(=O)c1nc(-c2ccc(Cl)c(OC)c2Cl)cc(N)c1Cl [Compound 89, 4-Amino-3-chloro-6-(2,4-dichloro-3-methoxyphenyl)pyridine-2-carboxylic acid, butyl ester] |  |  |  |  |  |  |  |  |  |  |  |  |  | 90% | 100% | 85% | 0% | 100% |  |
| COc1cc(-c2cc(N)c(Cl)c(C(=O)O)n2)c(F)cc1Cl [Compound 101, 4-Amino-3-chloro-6-(4-chloro-2-fluoro-5-methoxyphenyl)pyridine-2-carboxylic acid] |  | 100% | 100% | 100% | 100% | 100% | 100% | 60% | 5% | 99% | 100% | 60% | 10% |  |  |  |  |  |  |

More lines, main results first:

| melting point | SMILES | pest or weed control at 140 g/ha [1] | pest or weed control at 140 g/ha [2] | pest or weed control at 140 g/ha [3] | pest or weed control at 140 g/ha [4] | pest or weed control at 140 g/ha [5] | pest or weed control at 140 g/ha [6] | pest or weed control at 70 g/ha (Veronica persica) | pest or weed control at 70 g/ha (barley (Hordeum vulare)) | pest or weed control at 70 g/ha (Lamium purpureum) | pest or weed control at 70 g/ha (Papaver rhoeas) | pest or weed control at 70 g/ha (Galium aparine) | plant injury at 70 g/ha [7] | pest or weed control at 70 g/ha (Scirpus juncoides) | pest or weed control at 70 g/ha (Monochoria vaginalis) | pest or weed control at 70 g/ha (Echinochloa crus-galli) | pest or weed control at 70 g/ha [8] | pest or weed control at 70 g/ha (Cyperus difformis) | also measured |
| --- | --- | --- | --- | --- | --- | --- | --- | --- | --- | --- | --- | --- | --- | --- | --- | --- | --- | --- | --- |
| 172 to 173 °C | COC(=O)c1nc(-c2ccc(Cl)c(OC)c2F)c(F)c(N)c1Cl [Compound 14, 4-Amino-3-chloro-5-fluoro-6-(4-chloro-2-fluoro-3-methoxyphenyl)pyridine-2-carboxylic acid methyl ester] | 100% | 100% | 100% | 100% | 100% | 100% |  |  |  |  |  |  |  |  |  |  |  | pest or weed control at 35 g/ha (Veronica persica; 35 g ai/ha): 65%; pest or weed control at 35 g/ha (barley (Hordeum vulare); 35 g ai/ha): 0%; pest or weed control at 35 g/ha (Lamium purpureum; 35 g ai/ha): 95%; pest or weed control at 35 g/ha (Papaver rhoeas; 35 g ai/ha): 95%; pest or weed control at 35 g/ha (Galium aparine; 35 g ai/ha): 90%; plant injury at 35 g/ha ([7]; 35 g ai/ha): 0% |
| 104 to 106 °C | COC(=O)c1nc(-c2ccc(Cl)c(N(C)C)c2F)cc(N)c1Cl [Compound 16, 4-Amino-3-chloro-6-(4-chloro-3-dimethylamino-2-fluorophenyl)pyridine-2-carboxylic acid, methyl ester] | 100% | 90% | 100% | 100% | 100% | 100% |  |  |  |  |  |  |  |  |  |  |  | pest or weed control at 17.5 g/ha (Veronica persica; 17.5 g ai/ha): 95%; pest or weed control at 17.5 g/ha (barley (Hordeum vulare); 17.5 g ai/ha): 10%; pest or weed control at 17.5 g/ha (Lamium purpureum; 17.5 g ai/ha): 100%; pest or weed control at 17.5 g/ha (Papaver rhoeas; 17.5 g ai/ha): 95%; pest or weed control at 17.5 g/ha (Galium aparine; 17.5 g ai/ha): 95%; plant injury at 17.5 g/ha ([7]; 17.5 g ai/ha): 10% |
| 113 to 115 °C | COC(=O)c1nc(-c2cc(N(C)C)c(Cl)cc2F)cc(N)c1Cl [Compound 26, 4-amino-3-chloro-6-(4-chloro-5-dimethylamino-2-fluorophenyl)pyridine-2-carboxylic acid methyl ester] | 90% | 10% | 10% | 100% | 100% | 100% | 40% | 10% | 95% | 95% | 80% | 0% |  |  |  |  |  |  |
